Laboratory results from PubChem BioAssay AID463109 (Sanford-Burnham Center for Chemical Genomics, 2010).
Calls of active or inactive are those of the source.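 The calls were made as follows: active = mean IC50 below 10 µM; inactive = the rest.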

Biological target: Apelin receptor (Homo sapiens) (UniProt P35414)
Experiment: APJ antagonists, beta-arrestin recruitment, SAR follow-up, cell-based, luminescence (AID 463109)
Conditions: CHO-K1 AGTRL-1 PathHunter beta-arrestin luminescence

Chain of Apelin receptor (Homo sapiens) (P35414 whole entry, looked up): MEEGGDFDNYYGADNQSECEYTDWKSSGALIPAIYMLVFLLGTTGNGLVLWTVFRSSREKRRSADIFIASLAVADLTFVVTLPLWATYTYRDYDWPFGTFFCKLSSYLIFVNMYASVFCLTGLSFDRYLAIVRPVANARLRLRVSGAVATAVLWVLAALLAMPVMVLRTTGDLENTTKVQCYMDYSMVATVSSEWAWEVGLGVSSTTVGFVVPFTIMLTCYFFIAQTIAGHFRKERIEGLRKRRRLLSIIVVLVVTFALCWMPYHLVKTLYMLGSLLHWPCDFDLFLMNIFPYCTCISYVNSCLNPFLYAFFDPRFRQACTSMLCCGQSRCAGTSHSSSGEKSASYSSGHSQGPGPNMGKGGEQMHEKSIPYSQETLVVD

In the case of `COc1ccc(N=C2C(=O)Nc3ccc(C)c(Br)c32)cc1`, the IC50 is reported as > 79 µM (inactive).
Work on `O=C(Nc1nc2c(F)cc(F)cc2s1)c1ccccn1` yielded an IC50 of 7.55 µM.
For `COc1ccccc1NCC(=O)c1ccc(Cl)cc1`, the IC50 was 3.46 µM.
With `Cc1ccc(N=C2C(=O)Nc3ccccc32)cc1` the IC50 was “inactive”.
In the case of `O=c1c2cc(Br)ccc2[nH]c(=S)n1Cc1ccccn1`, the IC50 is reported as “inactive”.
With `Oc1cccc2ccc(/C=C/c3ccccc3Cl)nc12` the IC50 was “inactive”.
Work on `CC(C)OC(=O)CN1C(=O)C(=O)c2ccccc21` yielded an IC50 of 4.14 µM.
For `CCOC(=O)C1=NNC(C(=O)c2ccc(Cl)cc2)C1c1ccccc1` (stereo not given), the IC50 was “inactive”.
For `O=C(Nc1nc2ccc(F)cc2s1)c1ccccn1`, the IC50 was “inactive”.
`Cc1cccc2c1NC(=O)C2=Nc1ccc(Cl)cc1` was tested, and the IC50 was 8.16 µM.
`O=C(COC(=O)c1cnccn1)c1ccc(Cl)c([N+](=O)[O-])c1` was tested, and the IC50 was 8.31 µM.
For `Cc1cccc(N=C2C(=O)Nc3c(Cl)cccc32)c1`, the IC50 was 2.3 µM.
With `FC(F)(F)c1cccc(Sc2nc(-c3ccccc3)nnc2C(F)(F)F)c1` the IC50 was “inactive”.
`CC(=O)c1ccc(N=C2C(=O)Nc3ccccc32)cc1` gave an IC50 of 1.46 µM.
`O=C(CNS(=O)(=O)c1ccccc1)OCC(=O)c1cccc([N+](=O)[O-])c1` was tested, and the IC50 was “inactive”.
For `CC(C(=O)OCC(=O)c1cccc([N+](=O)[O-])c1)N1C(=O)C2C3C=CC(C3)C2C1=O` (stereo not given), the IC50 was “inactive”.
In the case of `Cc1cc(C)nc(NNS(=O)(=O)c2ccc(F)c(Cl)c2)n1`, the IC50 is reported as 2.62 µM.
`O=C1Nc2ccccc2C1=Nc1ccc(Br)cc1` showed an IC50 of 5.52 µM.
Molecule `CSc1cccc(N=C2C(=O)Nc3ccccc32)c1` has an IC50 of 3.82 µM.
`O=C1Nc2ccccc2C1=Nc1ccc(F)cc1` gave an IC50 of 5.95 µM.
`Cc1ccc(C(=O)CNc2ccccc2)cc1` showed an IC50 of 2.81 µM.
With `O=C(COC(=O)c1cccnc1)c1ccc(Cl)c(Cl)c1` the IC50 was “inactive”.
`Cc1ccc(OCC(=O)OCC(=O)c2cccc([N+](=O)[O-])c2)cc1C` was tested, and the IC50 was “inactive”.
For `Cc1cc(C)nc(NNS(=O)(=O)c2ccc(Cl)cc2)n1`, the IC50 was 8.98 µM.
`COc1cccc(/C=C/c2ccc3cccc(O)c3n2)c1OC` was tested, and the IC50 was “inactive”.
For `Cc1ccc(C)c(NCC(=O)c2ccc(Cl)cc2)c1`, the IC50 was 0.886 µM.
For `COc1ccc(S(=O)(=O)NNc2nc(C)cc(C)n2)cc1[N+](=O)[O-]`, the IC50 was “inactive”.
In the case of `CNC(=O)c1nnsc1S(=O)(=O)c1ccc(Cl)cc1`, the IC50 is reported as “inactive”.
`CCC[N+](CC#Cc1ccccc1)(CCC)CC(=O)c1ccc(Cl)cc1` was tested, and the IC50 was “inactive”.
`Cn1c(=O)c(C(=S)NC(=O)C2CC2)c(N)n(Cc2ccccc2)c1=O` was tested, and the IC50 was “inactive”.
In the case of `Cc1ccc(N=C2C(=O)Nc3ccc(Br)cc32)cc1`, the IC50 is reported as 4.73 µM.
`O=C(CNC(=O)c1ccco1)NCC(=O)OCC(=O)c1ccc(Cl)c([N+](=O)[O-])c1` showed an IC50 of 5.42 µM.
`COc1ccc(C(=O)CNc2cccc(F)c2)cc1` was tested, and the IC50 was “inactive”.
With `Cc1cc(C)nc(NNS(=O)(=O)c2c(F)cc(F)cc2Br)n1` the IC50 was 2.9 µM.
In the case of `Cc1ccc(N=C2C(=O)Nc3c(C)cccc32)cc1`, the IC50 is reported as “inactive”.
In the case of `CCN(CC)CC(=O)c1ccc(-c2ccccc2)cc1`, the IC50 is reported as “inactive”.
Molecule `CC1(C)CC2(CC(c3ccccc3F)c3cc(Cl)c(O)cc3O2)NC(=S)N1` (stereo not given) has an IC50 of 5.71 µM.
For `O=C(CNc1cccc(Cl)c1)c1ccc(Br)cc1`, the IC50 was > 79 µM (inactive).
For `COC(=O)C1NN=C(C(=O)c2ccc(Cl)cc2)C1c1ccc(OC)cc1` (stereo not given), the IC50 was “inactive”.
`O=C(CNc1ccccc1C(=O)O)c1ccccc1` showed an IC50 of 2.92 µM.
Molecule `Cc1ccc(C(=O)CNc2cc(C)ccc2C)cc1` has an IC50 of 2.31 µM.
`CC(C)Cc1nc2oc3c(Cl)ncnc3c2c2c1CCC2` was tested, and the IC50 was “inactive”.
For `CC(=O)Nc1ccc(NC(=O)CCC(=O)OCC(=O)c2ccc(C)c([N+](=O)[O-])c2)cc1`, the IC50 was “inactive”.
In the case of `S=C1NCCc2ccccc2C1c1ccccc1Cl` (stereo not given), the IC50 is reported as “inactive”.
In the case of `COc1ccc(S(=O)(=O)NNc2nc(C)cc(C)n2)cc1Br`, the IC50 is reported as “inactive”.
In the case of `CCC1CCCCN1CC(=O)c1ccc(OC(F)F)cc1` (stereo not given), the IC50 is reported as “inactive”.
`O=S(=O)(NN=Cc1ccc(-c2ccccc2Cl)o1)c1ccccc1` was tested, and the IC50 was “inactive”.
For `O=c1cc(CSc2ccc(Cl)cc2)nc(-c2ccccn2)[nH]1`, the IC50 was “inactive”.
`CCOc1ccc(N=C2C(=O)Nc3ccc(C)c(Br)c32)cc1` was tested, and the IC50 was 6.58 µM.
Molecule `NC(=O)c1ccccc1NCC(=O)c1ccc(Cl)cc1` has an IC50 of 2.89 µM.
In the case of `O=C(COC(=O)c1ccncc1)c1ccc(Cl)c(Cl)c1`, the IC50 is reported as “inactive”.
For `O=C(CNc1ccc(Br)cc1)c1ccccc1`, the IC50 was 2.26 µM.
With `CC(C)N1CCc2c(sc(NC(=O)c3cc(-c4cccs4)nc4ccccc34)c2C(N)=O)C1` the IC50 was “inactive”.
For `Cc1ccc2nc(C)cc(C(=O)OCC(=O)c3ccc(Cl)c([N+](=O)[O-])c3)c2c1`, the IC50 was “inactive”.
Molecule `CC(C)(C)c1ccc(-n2nc(C#N)c(Cl)cc2=O)cc1` has an IC50 of 3.53 µM.
